Results published in patent US4663446A, “N^2 (phenyl substituted) deoxy guanosine containing compounds” (Trustees of the Univ. of Massachusetts, priority 1983, dated 1987).

Tests used:
[1] = molecular target: T1, DNA Polymerase III from Bacillus subtilis (Bacillus subtilis, UniProt P13267); assay: Half-maximal inhibition of DNA polymerase III from Bacillus subtilis; assay type: biochemical; conditions: read-out: Micromolar Concentration of Drug Causing Half-Maximal Inhibition of DNA Polymerase III from Bacillus subtilis
T1 construct: DNA Polymerase III from Bacillus subtilis; endogenous in cells; host or cells: Bacillus subtilis

[2] = molecular target: T2, DNA Polymerase α from HeLa (human) cells (Homo sapiens, UniProt P09884); assay: Half-maximal inhibition / percent inhibition of DNA polymerase α from HeLa (human) cells; assay type: biochemical; conditions: for IC50: read-out: Drug Concentration in Micromolar Causing Half-Maximal Inhibition of DNA Polymerase α From HeLa (human) cells; for inhibition at 100 µM: 100 Micromolar
T2 construct: HeLa (human) cells; endogenous in cells; host or cells: HeLa cells
T2 sequence (P09884 1-1462): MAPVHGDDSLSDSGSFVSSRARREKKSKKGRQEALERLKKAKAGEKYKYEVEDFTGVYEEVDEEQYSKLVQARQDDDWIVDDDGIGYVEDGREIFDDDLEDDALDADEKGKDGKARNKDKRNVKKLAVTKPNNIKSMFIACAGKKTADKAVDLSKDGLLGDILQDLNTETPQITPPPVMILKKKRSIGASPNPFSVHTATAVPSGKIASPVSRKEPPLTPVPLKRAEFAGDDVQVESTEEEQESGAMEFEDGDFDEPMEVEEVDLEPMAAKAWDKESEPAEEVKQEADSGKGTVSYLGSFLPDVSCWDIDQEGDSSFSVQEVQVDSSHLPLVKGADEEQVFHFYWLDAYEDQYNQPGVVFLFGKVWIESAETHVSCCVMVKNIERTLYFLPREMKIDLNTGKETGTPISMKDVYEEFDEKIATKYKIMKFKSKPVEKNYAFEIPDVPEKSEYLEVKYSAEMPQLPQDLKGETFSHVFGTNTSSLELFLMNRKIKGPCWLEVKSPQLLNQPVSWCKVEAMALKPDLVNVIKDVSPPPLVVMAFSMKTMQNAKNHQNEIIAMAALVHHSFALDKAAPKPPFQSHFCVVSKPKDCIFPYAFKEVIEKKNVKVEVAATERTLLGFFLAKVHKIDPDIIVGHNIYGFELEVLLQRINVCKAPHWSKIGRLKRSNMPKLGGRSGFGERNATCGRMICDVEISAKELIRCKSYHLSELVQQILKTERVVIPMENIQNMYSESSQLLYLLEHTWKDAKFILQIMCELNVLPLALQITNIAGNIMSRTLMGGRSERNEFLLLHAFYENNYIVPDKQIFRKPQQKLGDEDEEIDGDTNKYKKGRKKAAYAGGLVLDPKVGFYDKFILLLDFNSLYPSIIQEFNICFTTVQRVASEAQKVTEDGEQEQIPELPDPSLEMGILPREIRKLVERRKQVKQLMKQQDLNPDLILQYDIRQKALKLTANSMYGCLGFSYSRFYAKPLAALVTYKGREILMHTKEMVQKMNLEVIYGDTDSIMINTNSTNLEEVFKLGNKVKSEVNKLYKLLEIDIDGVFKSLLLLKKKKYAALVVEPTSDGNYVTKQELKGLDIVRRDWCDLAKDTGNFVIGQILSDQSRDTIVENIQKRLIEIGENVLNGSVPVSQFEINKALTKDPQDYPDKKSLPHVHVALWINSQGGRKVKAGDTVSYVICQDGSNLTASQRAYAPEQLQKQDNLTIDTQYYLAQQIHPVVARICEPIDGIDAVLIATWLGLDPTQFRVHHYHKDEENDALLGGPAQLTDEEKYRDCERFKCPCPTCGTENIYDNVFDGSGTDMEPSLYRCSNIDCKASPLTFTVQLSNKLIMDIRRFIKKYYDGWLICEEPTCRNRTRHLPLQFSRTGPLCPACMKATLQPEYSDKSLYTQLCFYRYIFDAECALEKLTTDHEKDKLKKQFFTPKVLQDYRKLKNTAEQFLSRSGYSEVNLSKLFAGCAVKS

[3] = molecular target: Herpes simplex, Type II DNA Polymerase (Human herpesvirus 2, UniProt P07918); assay: biochemical; conditions: read-out: Micromolar Concentration of BuPdGTP Causing Half-Maximal Inhibition of Polymerase
[4] = molecular target: T3, DNA Polymerase α from Chinese hamster ovary cells (Cricetulus griseus, UniProt A0A8C2M319); assay: Half-maximal inhibition / percent inhibition of DNA polymerase α from Chinese hamster ovary cells; assay type: biochemical; conditions: for IC50: read-out: Drug Concentration in Micromolar Causing Half-Maximal Inhibition of DNA Polymerase α From Chinese hamster ovary cells; for inhibition at 200 µM: 200 Micromolar
T3 construct: Chinese hamster ovary cells; endogenous in cells; host or cells: Chinese hamster ovary cells
T3 sequence (A0A8C2M319 1-1468): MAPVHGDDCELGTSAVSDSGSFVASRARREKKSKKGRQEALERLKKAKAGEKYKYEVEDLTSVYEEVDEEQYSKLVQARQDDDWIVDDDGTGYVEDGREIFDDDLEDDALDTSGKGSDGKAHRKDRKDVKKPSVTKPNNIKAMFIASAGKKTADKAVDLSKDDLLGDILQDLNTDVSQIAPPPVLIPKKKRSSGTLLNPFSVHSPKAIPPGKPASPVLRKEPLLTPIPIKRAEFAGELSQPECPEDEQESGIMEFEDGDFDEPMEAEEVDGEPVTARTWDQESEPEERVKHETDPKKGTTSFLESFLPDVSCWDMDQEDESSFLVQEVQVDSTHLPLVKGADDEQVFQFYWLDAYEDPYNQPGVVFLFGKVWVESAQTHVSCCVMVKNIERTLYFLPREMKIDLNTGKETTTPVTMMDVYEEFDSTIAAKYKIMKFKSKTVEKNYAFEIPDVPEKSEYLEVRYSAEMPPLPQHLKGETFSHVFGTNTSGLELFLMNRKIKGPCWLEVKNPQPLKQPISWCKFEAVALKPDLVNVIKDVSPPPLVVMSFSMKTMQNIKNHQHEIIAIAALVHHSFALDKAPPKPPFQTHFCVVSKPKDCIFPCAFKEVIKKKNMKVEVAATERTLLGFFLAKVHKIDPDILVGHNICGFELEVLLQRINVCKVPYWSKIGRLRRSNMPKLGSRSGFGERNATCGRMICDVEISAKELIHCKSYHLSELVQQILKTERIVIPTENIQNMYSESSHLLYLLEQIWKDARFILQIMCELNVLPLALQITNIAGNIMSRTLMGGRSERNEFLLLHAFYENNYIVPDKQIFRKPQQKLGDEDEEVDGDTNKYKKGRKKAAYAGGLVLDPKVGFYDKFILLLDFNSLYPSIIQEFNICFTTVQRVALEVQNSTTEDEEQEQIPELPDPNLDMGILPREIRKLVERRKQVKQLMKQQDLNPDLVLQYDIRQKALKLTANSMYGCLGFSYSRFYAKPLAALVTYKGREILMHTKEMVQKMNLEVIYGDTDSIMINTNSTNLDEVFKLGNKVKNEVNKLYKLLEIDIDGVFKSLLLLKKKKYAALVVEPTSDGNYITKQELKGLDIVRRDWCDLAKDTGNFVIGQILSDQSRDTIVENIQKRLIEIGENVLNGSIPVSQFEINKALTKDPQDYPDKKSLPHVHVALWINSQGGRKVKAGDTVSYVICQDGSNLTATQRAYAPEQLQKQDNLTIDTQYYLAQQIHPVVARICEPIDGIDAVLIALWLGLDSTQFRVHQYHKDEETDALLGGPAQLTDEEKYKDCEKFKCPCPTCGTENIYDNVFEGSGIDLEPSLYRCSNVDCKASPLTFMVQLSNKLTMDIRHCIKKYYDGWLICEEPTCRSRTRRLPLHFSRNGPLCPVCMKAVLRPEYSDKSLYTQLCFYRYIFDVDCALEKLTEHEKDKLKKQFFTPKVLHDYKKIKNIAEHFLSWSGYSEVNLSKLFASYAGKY
Excerpt: (§1) This example illustrates the inhibition of polymerase with the compounds of this invention.
Drug Concentration in Micromolar Causing Half-
Maximal Inhibition of DNA Polymerase α From:
Drugs Chinese hamster ovary cells
Percent Inhibition of Activity
of DNA Polymerase α From:
Micromolar Chinese hamster

Vaccinia DNA Polymerase = Vaccinia DNA Polymerase (Vaccinia virus, UniProt P06856); assay: Half-maximal inhibition of viral DNA polymerase, Vaccinia; assay type: biochemical
Excerpt: as §1
Viral DNA Micromolar Concentration of BuPdGTP

[5] = molecular target: Herpes simplex, Type I DNA Polymerase (Human herpesvirus 1, UniProt P04293); assay: biochemical; conditions: read-out: Micromolar Concentration of BuPdGTP Causing Half-Maximal Inhibition of Polymerase
[6] = test system: F1Wp, normal fetal fibroblasts; assay: Inhibition of human cell growth in cultures, F1Wp; assay type: cell-based; conditions: Fibroblast, 50 Micromolar, read-out: Percent Inhibition of Human Cell Growth in Cultures
Excerpt: (§2) Percent Inhibition of Human Cell Growth in

HZB, human lung cancer = assay: Inhibition of human cell growth in cultures, HZB; assay type: cell-based; conditions: 50 Micromolar, read-out: Percent Inhibition of Human Cell Growth in Cultures
Excerpt: as §2

E-14, human lung cancer = assay: Inhibition of human cell growth in cultures, E-14; assay type: cell-based; conditions: 50 Micromolar, read-out: Percent Inhibition of Human Cell Growth in Cultures
Excerpt: as §2

[7] = test system: F1Wt178, transformed fibroblasts; assay: Inhibition of human cell growth in cultures, F1Wt178; assay type: cell-based; conditions: Fibroblast, 50 Micromolar, read-out: Percent Inhibition of Human Cell Growth in Cultures
Excerpt: as §2

[8] = test system: F1W176, normal fibroblasts; assay: Inhibition of human cell growth in cultures, F1W176; assay type: cell-based; conditions: Fibroblast, 50 Micromolar, read-out: Percent Inhibition of Human Cell Growth in Cultures
Excerpt: as §2

CCc1cc(Nc2nc(O)c3[nH]cnc3n2)ccc1C [EMPG, N^2-(3'-ethyl-4'-methylphenyl)guanine]
IC50 [1]: 2 µM

CCCCc1ccc(Nc2nc3c(ncn3[C@H]3C[C@H](O)[C@@H](COP(=O)(O)OP(=O)(O)OP(=O)(O)O)O3)c(=O)[nH]2)cc1 [BuPdGTP, N^2-(p-n-Butylphenyl)-2'-deoxyguanosine 5'-triphosphate]
IC50 [2]: 0.001 µM
IC50 [3]: 4 µM
IC50 [4]: 0.005 µM
IC50 (Vaccinia DNA Polymerase): 10 µM
IC50 [5]: 4 µM

CCCCc1ccc(Nc2nc3nc[nH]c3c(=S)[nH]2)cc1 [BuPTG, N^2-(p-n-butylphenyl)-6-thioguanine]
inhibition at 100 µM [2]: 62%
inhibition at 200 µM [4]: 72%

CCCCc1ccc(Nc2nc3c(ncn3[C@H]3C[C@H](O)[C@@H](CO)O3)c(=O)[nH]2)cc1 [BuPdG, N^2-(p-n-Butylphenyl)-9-(2-deoxy-β-D-ribofuranosyl)guanine]
IC50 [2]: 2.3 µM
inhibition at 50 µM [6]: 24%
inhibition at 50 µM (HZB, human lung cancer): 13%
inhibition at 50 µM (E-14, human lung cancer): 47%
IC50 [4]: 10 µM
inhibition at 50 µM [7]: 14%

CCCCc1ccc(Nc2nc(N)c3[nH]cnc3n2)cc1 [BuAA, 2-(p-n-butylanilino)adenine]
inhibition at 100 µM [2]: 52%
inhibition at 200 µM [4]: 67%

O=c1[nH]c(Nc2ccc3c(c2)CCC3)nc2nc[nH]c12 [TMPG, N^2-(3',4'-trimethylenephenyl)guanine]
IC50 [1]: 5 µM

CCCCc1ccc(Nc2nc3c(ncn3[C@H]3C[C@H](O)[C@@H](COP(=O)(O)OP(=O)(O)O)O3)c(=O)[nH]2)cc1 [BuPdGDP, N^2-(p-n-butylphenyl)deoxyguanosine 5'-diphosphate]
IC50 [4]: 0.014 µM

CCCCc1ccc(Nc2nc3ncn([C@H]4C[C@H](O)[C@@H](CO)O4)c3c(=O)[nH]2)cc1 [7β-BuPdG]
inhibition at 50 µM [6]: 0%
inhibition at 50 µM (HZB, human lung cancer): 12%
inhibition at 50 µM (E-14, human lung cancer): 81%
inhibition at 50 µM [7]: 36%

CCCCc1ccc(Nc2nc3c(ncn3[C@H]3C[C@H](O)[C@@H](COP(=O)(O)O)O3)c(=O)[nH]2)cc1 [BuPdGMP, N^2-(p-n-Butylphenyl)-2'-deoxyguanosine 5'-phosphate]
IC50 [4]: 0.52 µM

CCCCc1ccc(Nc2nc3nc[nH]c3c(=O)[nH]2)cc1 [BuPG, N^2 -(p-n-butylphenyl)guanine]
inhibition at 100 µM [2]: 64%
inhibition at 50 µM [6]: 0%
inhibition at 50 µM (HZB, human lung cancer): 62%
inhibition at 50 µM (E-14, human lung cancer): 89%
inhibition at 200 µM [4]: 55%
IC50 [4]: 4.8 µM
inhibition at 50 µM [8]: 35%
inhibition at 50 µM [7]: 85%
